Source: PMC5399052, “Integrating in vitro data and physiologically based kinetic (PBK) modelling to assess the in vivo potential developmental toxicity of a series of phenols” (Archives of Toxicology, 2016)
Where two headings read alike, the source gives them in different places. Marks after values point to notes of the source that are not given here.

Legend:
[1] = rat at GD20; ref Varma and Ramakrishnan [1985]; cited from earlier work
in vivo = settings: female, rat GD11, allometrically scaled from GD20 value of Varma and Ramakrishnan [1985], read-out: CLPL, transplacental maternal-foetal clearance rate (converted)
[2] = cited from earlier work; for Concentration in EST culture medium over time: without cells, ref Strikwold et al. [2012]
BeWo cells = test: In vitro placental transport study (BeWo b30 transwell)
Experimental: (§1) BeWo cells (passages 28–31) were cultured in DMEM with […] and supplemented with 10% (v/v) heat-inactivated FCS, 2 mM L-glutamine, 10,000 U/ml penicillin and 10 mg/ml streptomycin and maintained in polystyrene cell culture flasks (Corning, Amsterdam, the Netherlands) in a 5% CO2-humidified atmosphere at 37 °C. Cells were harvested after exposure to a trypsin–EDTA solution. Next, the cells were seeded onto Transwell® inserts (0.4-µm pored polycarbonate membrane, 12 mm diameter), with a density of 10^5 cells/cm^2. Cell culture medium (0.5 and 1.5 ml in the apical and basolateral compartment, respectively) was changed daily.
(§2) Transport experiments were performed 6 days post-seeding. The transport buffer consisted of HBSS with 30 mg/ml bovine serum albumin (apical compartment) and 10 mg/ml bovine serum albumin (basolateral compartment) representing mid- and late gestational maternal and embryonic/foetal rat plasma albumin levels, respectively (Honda et al. [2008]; Mcmullin et al. [2008]; Yeoh and Morgan [1974]). The transport experiments were performed for the same compounds and according to the same method as described for the Caco-2 transport experiments, except that only cell layers with a TEER value >190 Ω cm^2 were used for the transport experiments. The BeWo transport studies encompassed four independently performed experiments including two replicates in each assay. Samples were analysed by UPLC–PDA (see “Quantification of analytes” section) for the presence of the test compound and possible metabolites. The apparent permeability coefficients were calculated using the same method as described for the Caco-2 transport experiments.

[3] = as above; settings: human
Experimental: as §1, §2

Balb/c 3T3 clone A31 = settings: BSA levels reflecting in vitro and in vivo situation
Experimental: (§3) In vitro concentration–response data obtained with the EST were translated to in vivo dose–response values by applying PBK-based reverse modelling, performed as described by Strikwold et al. ([2013]) with some modifications. […] In vivo albumin and fat levels that are used in the extrapolation rules were adjusted to values that correspond to embryos/foetuses during mid-/late gestation. […] The vitro lipid fraction and albumin levels resembling the situation in the EST were 0.04% and 4.8 mg/ml, respectively (Verwei et al. [2006]).

in vitro [4] = settings: human, Caco-2
Experimental: (§4) Caco-2 cells (passages 37–40) were cultured in DMEM containing 25 mM HEPES (pH 7.4) supplemented with 10% (v/v) heat-inactivated FCS, 4500 mg/l glucose, 2 mM L-glutamine, 1% (v/v) minimal essential medium non-essential amino acids, 10,000 U/ml penicillin and 10 mg/ml streptomycin and maintained in polystyrene cell culture flasks (Corning, Amsterdam, the Netherlands) in a 5% CO2-humidified atmosphere at 37 °C. Cells were harvested after exposure to a trypsin–EDTA solution. Next, the cells were seeded onto Transwell® inserts (0.4 µm pored polycarbonate membrane, 12 mm diameter), at a density of 10^5 cells/cm^2. Cell culture medium (0.5 and 1.5 ml in the apical and basolateral compartment, respectively) was changed every two days.
(§5) Transport experiments were performed between day 20 and 23 post-seeding. Prior to the transport experiments, the cell culture medium was removed and cells were equilibrated in HBSS for 30–45 min in a 5% CO2-humidified atmosphere at 37 °C. In these 45 min, the integrity of the cell monolayer was examined by measuring the Trans Epithelial Electrical Resistance (TEER) of the cell layer using a Millicell ERS-2 Volt–Ohm Meter (Millipore, USA). Only cell layers with a TEER value between 500 and 1000 Ω cm^2 were used for the transport experiments. The transport buffer for the apical compartment consisted of HBSS containing 10 mM HEPES (pH 6.5) and 10 mM sodium taurocholate and the transport buffer for the basolateral compartment consisted of HBSS (pH 7.4) with 30 mg/ml bovine serum albumin. At first, 1.5 ml pre-warmed (37 °C) transport buffer was added to the basolateral compartment. Then, the transport experiments were started by adding 0.5 ml pre-warmed transport buffer containing the test compound (100 µM) to the apical compartment. After 60-min incubation in a 5% CO2-humidified atmosphere at 37 °C, a 75 µl sample was taken from the basolateral compartment and then from the apical compartment. Each sample was added to 150 µl ice-cold methanol, vortexed and put on ice immediately. […] Samples were analysed by UPLC–PDA (see “Quantification of analytes” section) for the presence of the test compound and possible metabolites.
(§6) TEER values were also measured at the end of the transport experiment, during the first washing step and compared to the TEER values measured before the transport experiment in order to assess toxicity of the test compound to the cell monolayer. […]
(§7) The apparent permeability coefficients (P app; cm/s) were calculated using the following algorithm: Papp=ΔQ/Δt/A∗C0 where P app is the apparent permeability coefficient (cm/s), ΔQ/Δt (nmol/s) is the amount of the test compound transported to the receiver chamber in a certain time period, A is the transwell membrane surface area (cm^2) and C 0 is the initial concentration of the test compound in the donor compartment (µM).
(§8) In order to assess the validity of the P app calculations for this experiment, the linearity of transport from the apical to the basolateral side was verified by taking samples from the basolateral side at t = 15, 30, 60 and 90 min, at a test concentration of 100 µM. […] The recovery of the test compound in each transport experiment was calculated with a mass balance equation, taking into account the amount of the test compound in the apical and basolateral compartment and the amount in the cells and/or filter of the Transwell® insert.

[5] = In vivo developmental toxicity study, rats exposed at GD11; settings: female, rat
Text: (§9) The BMDL05 values of the in vivo study were derived using the BMDS version 2.6.

[6] = rat, ref Humphrey et al. [1980], cited from earlier work
rat liver microsomes [7] = settings: cited from earlier work
rat liver microsomes [8] = test: Glucuronidation of phenols by rat liver microsomes; settings: for Vmax(app) glucuronidation (± SD): rat liver microsomes, 10 mM UDPGA, alamethicin activated
Experimental: (§10) The formation of glucuronide metabolites of the p-substituted phenols was investigated in incubations with rat liver microsomes. […] To obtain maximum glucuronidation activity, the microsomes were activated by preincubating the incubation mixture with 0.025 mg/ml alamethicin added from a 200 times concentrated stock solution in methanol, during 15 min on ice (Fisher et al. [2000]). Subsequently, the incubations were started after a 1-min preincubation at 37 °C by addition of the substrate from a 200 times concentrated stock solution in DMSO and incubated in a shaking water bath at 37 °C for 45 min. The reactions were terminated by addition of ice-cold acetonitrile (20% v/v). In the blank incubation mixtures, UDPGA was omitted. Samples were analysed by UPLC–PDA (see “Quantification of analytes” section). No reference standards of the glucuronide metabolites were commercially available. […] At first, retention times from the UPLC–PDA chromatograms of the parent compound of the blank incubation were compared with the retention times of newly appearing peaks in chromatograms of the incubation mixtures, as the glucuronide conjugates are expected to elute earlier compared with their parent compounds due do their increased hydrophilicity. […] For this purpose, a volume of 10 µl of the incubation mixture of the glucuronidation assay (that was not terminated by the addition of ice-cold acetonitrile) was added to 90 µl of 200 mM potassium phosphate (pH 6.2). Then, 4 µl of glucuronidase (200 units/ml) was added, and the mixtures were incubated for 60 min in a shaking water bath at 37 °C. The reactions were terminated by addition of ice-cold acetonitrile (20% v/v) and were put on ice. Control samples were treated under the same conditions, but without glucuronidase.
(§11) The conditions of the incubation assays were optimised to obtain linear reaction rates with respect to incubation time and protein concentration and non-limiting cofactor levels were applied. […] To obtain maximum glucuronidation activity, the microsomes were activated by preincubating the incubation mixture with 0.025 mg/ml alamethicin added from a 200 times concentrated stock solution in methanol, during 15 min on ice (Fisher et al. [2000]).
(§12) Kinetic constants for the glucuronidation of the p-substituted phenols were derived by fitting the data to the standard Michaelis–Menten equation; v=Vmax∗S/Km+[S] in which [S] represents the substrate concentration, V max the maximum velocity and K m the Michaelis–Menten constant for the formation of the glucuronide metabolites. Data analysis was accomplished using GraphPad Prism 5.0 software (GraphPad, San Diego, CA, USA). […] The in vivo K m value was assumed to be the same to the in vitro K m value.
(§13) Samples from the BeWo and Caco-2 transport experiments were centrifuged at 13,000 rpm at 5 °C for 15 min. Next 7.5 µl of the supernatant of each sample was analysed by UPLC (Waters Acquity). Samples from the glucuronidation assays were centrifuged at 15,000 rpm at 5 °C for 5 min. […] All samples, except those from transport studies with fluorescein, were analysed on a Waters BEH C18 1.7 µm column, 2.1 × 50 mm, with nanopure water (0.1% TFA) (A) and pure acetonitrile (B) applying a gradient elution. The start condition was 100:0 (A:B), changing to 90:10 from 1 to 2 min, then to 10:90 from 2 to 4 min (or from 2 to 3 min when analysing samples for p-heptyloxyphenylglucuronide), remaining at this ratio for 0.5 min and then rapidly declining to the start condition. The flow rate was 0.6 ml/min.

Caco-2 cells = test: in vitro
Experimental: as §4, §5, §6, §7, §8

ES-D3 cells = settings: ref Strikwold et al. [2012]; cited from earlier work
in vitro [9] = settings: rat, pH 7.4
Experimental: as §10, §11, §12, §13

rat = test: In vitro PBK-based reverse dosimetry (predicted developmental toxicity); settings: BMDL05 based on Cmax
Experimental: as §3, §9

whole embryo culture = settings: cited from earlier work
albumin = settings: cited from earlier work
[10] = P app ratio to antipyrine multiplied by antipyrine clearance 0.18 l/h, GD11

Structure (SMILES)	Concentration in EST culture medium over time [2]	CLPL, predicted rat transplacental clearance (BeWo cells; [10])	Papp A→B at 60 min, 100 µM [3]	Papp A→B at 60 min, 100 µM (in vitro [4])	Vmax(app) glucuronidation (± SD) (rat liver microsomes [8])	Potency ratio (phenol / p-substituted phenol), in vitro PBK approach (rat)	CLPL, predicted rat transplacental clearance (BeWo cells)	ka, predicted oral absorption coefficient (Caco-2 cells; Caco-2)	Km (rat liver microsomes [8])	Scaled Vmax(app) (rat liver microsomes [8])	further results
Cc1cc(=O)n(-c2ccccc2)n1C [Antipyrine, antipyrine]	–	–	–	–	–	–	–	–	–	–	Transplacental clearance value [1]: 7.47 mL/min/kg; clearance (in vivo): 3 mL/min
Oc1ccccc1 [Phenol]	decreased in time	0.19 L/h	41.6 ± 3.4 ×10⁻⁶ cm/s	48.4 ± 8.6 ×10⁻⁶ cm/s	–	–	–	–	–	–	Loss in the EST ([2]; 10-day EST, ref Strikwold et al. [2013]): 39%; P app fold higher than antipyrine (BeWo cells; BeWo): 1.03 fold; Effect of bovine serum albumin level on in vitro cytotoxicity (Balb/c 3T3 clone A31): not affected; NOAEL [5]: 333 mg/kg; ka, uptake rate from in situ intestinal perfusion [6]: 7.62^b /h; ka, uptake rate from in situ intestinal perfusion ([6]; listed as phenol): 7.62 h⁻¹; Km (rat liver microsomes [7]; read-out: Km(app) glucuronidation (± SD), ref Strikwold et al. [2013]): 465 ± 66 µM; Vmax(app) glucuronidation (± SD) (rat liver microsomes [7]; ref Strikwold et al. [2013]): 90 ± 4 nmol/min/mg microsomal protein; Scaled catalytic efficiency (rat liver microsomes [8]; scaled to rat liver): 0.44 l/h/g liver; Scaled Vmax(app) (rat liver microsomes [8]; scaled with microsomal protein yield 38 mg/g rat liver): 205 µmol/h/g liver
O=C1OC2(c3ccc(O)cc3Oc3cc(O)ccc32)c2ccccc21 [fluorescein, reference compound]	–	–	–	–	–	–	–	–	–	–	P app / transport fold lower than antipyrine (BeWo cells; BeWo): 11 fold
Oc1ccc(F)cc1 [p-Fluorophenol, p-fluorophenol]	decreased in time	0.15 L/h	34.2 ± 3.3 ×10⁻⁶ cm/s	47.7 ± 13.8 ×10⁻⁶ cm/s	101 ± 1.6 nmol/min/mg microsomal protein	0.7 fold	–	–	–	–	ka, predicted oral absorption coefficient (Caco-2 cells; rat, Caco-2, 100 µM): 7.52 h⁻¹; Potency ratio / difference in BMC50 (phenol / p-substituted phenol) in the EST (ES-D3 cells): 1.9 fold; Km at 10 min (in vitro [9]): 314 ± 16 µM; Catalytic efficiency (Vmax/Km) (rat liver microsomes [8]; Sprague-Dawley, rat, pH 7.4): 0.32 ml/min/mg protein; Scaled catalytic efficiency (rat liver microsomes [8]; Sprague-Dawley, rat, pH 7.4): 0.74 l/h/g liver; Scaled Vmax(app) (rat liver microsomes [8]; rat, pH 7.4): 231 µmol/h/g liver
CCCCCCCOc1ccc(O)cc1 [p-Heptyloxyphenol, p-heptyloxyphenol]	stable	–	–	–	60 ± 4.5 nmol/min/mg microsomal protein	–	0.026 L/h	6.34 h⁻¹	2.1 ± 0.6 µM	137 µmol/h/g liver	Embryotoxic potency when hepatocytes were added (whole embryo culture): greatly reduced; Fraction bound to albumin (albumin): 0.99
CC(=O)c1ccc(O)cc1 [p-Methylketophenol, p-methylketophenol]	stable	–	–	–	160 ± 4.4 nmol/min/mg microsomal protein	0.5 fold	0.12 L/h	8.18 h⁻¹	138 ± 17 µM	365 µmol/h/g liver	Catalytic efficiency (Vmax/Km) (rat liver microsomes [8]): 1.16 ml/min/mg protein; Scaled catalytic efficiency (rat liver microsomes [8]): 2.65 l/h/g liver
